Data on 19 compounds can be found in patent publication US20250051347A1, “BIFUNCTIONAL CHIMERIC HETEROCYCLIC COMPOUND AND USE THEREOF AS ANDROGEN RECEPTOR DEGRADER” (Hinova Pharmaceuticals, Inc., priority 2021, published 2025).

Read-outs that look alike come from different tables or passages of the source.

Series [1] has as its target T1, androgen receptor (AR) splicing variant AR-v7 (Homo sapiens, UniProt P10275).
T1 construct: The degradation activity of compounds on AR-v7 in 22RV1 cells; host or cells: 22RV1 cells
T1 sequence (P10275 1-644 isoform P10275-3): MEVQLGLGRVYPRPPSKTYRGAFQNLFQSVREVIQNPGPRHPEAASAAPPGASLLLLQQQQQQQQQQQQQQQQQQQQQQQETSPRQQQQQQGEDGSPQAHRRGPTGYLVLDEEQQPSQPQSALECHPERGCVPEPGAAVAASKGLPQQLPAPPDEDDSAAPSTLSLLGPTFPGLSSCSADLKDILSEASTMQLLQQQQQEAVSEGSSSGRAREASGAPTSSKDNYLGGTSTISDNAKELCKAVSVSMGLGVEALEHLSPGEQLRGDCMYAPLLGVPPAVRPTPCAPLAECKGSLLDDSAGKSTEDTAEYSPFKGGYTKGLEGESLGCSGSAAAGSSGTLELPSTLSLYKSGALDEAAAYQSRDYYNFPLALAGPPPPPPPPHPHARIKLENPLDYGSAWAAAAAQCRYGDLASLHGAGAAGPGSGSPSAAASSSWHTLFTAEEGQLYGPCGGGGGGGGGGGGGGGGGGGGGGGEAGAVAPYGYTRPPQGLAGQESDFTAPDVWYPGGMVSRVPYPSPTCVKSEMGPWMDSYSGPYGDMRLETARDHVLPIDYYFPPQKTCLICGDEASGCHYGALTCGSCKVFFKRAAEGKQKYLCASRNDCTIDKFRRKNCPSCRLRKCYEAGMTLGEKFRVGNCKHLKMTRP
The experiment in a line: Degradation activity on androgen receptor splicing variant AR-v7 in 22RV1 cells (ELISA). To be noted: AR-v7 degradation in 22RV1 cells, 48 h, class symbols. The format is cell-based. (In general: In an ELISA, binding on a coated surface is turned into a signal by an enzyme label.)

The nature of series [2]: Pharmacokinetics in mice (plasma exposure after oral administration). In kind it is in vivo. Conditions: ICR mice, oral (i.g.) 3 mg/kg; for AUC(0-inf): mouse, read-out: After oral administration of 3 mg/kg, mouse plasma exposure AUCinf. On the procedure:
• LC-20AD high performance liquid chromatography (SHIMADZU, Japan) • API4000 triple quadrupole mass spectrometer (Applied Biosystem, USA) • Phenix Winnolin Pharmacokinetic software (Version 6.3, Certara, USA) • High speed freezing centrifuge (Thermo Fisher Scientific) • Analytical balance (Sartorius, SECURA225D-ICN) • ICR mice (Chengdu Dossy Experimental Animals CO., LTD.)
A suitable amount of drug was accurately weighed, and then the medium (5% DMSO, 15% HS-15, 80% DSW) was added to prepare the solution at a concentration of 0.1 mg/ml (i.v.) and 0.3 mg/ml (i.g.).
18 healthy adult ICR mice were divided into two groups (9 mice for i.v. group; 9 mice for i.g. group), and administered by tail vein or by gavage after fasting overnight (free drinking water); using the satellite blood collection method, 3 animals were collected at each time point, and then 0.1 ml of blood obtained at different time points was anticoagulated with EDTA-K2, centrifuged at 4° C. for 5 min to separate the plasma, and stored at −80° C. for detection. The sampling time points after i.v. administration were 5 min, 15 min, 0.5 h, 1 h, 2 h, 4 h, 8 h, 12 h, and 24 h; while the sampling time points for i.g. group were before administration (0 h) as well as 0.5 h, 1 h, 2 h, 4 h, 6 h, 8 h, 12 h, and 24 h after administration. Then, the drug concentration in plasma was determined by LC/MS/MS.

Where [3] appears, read: Homo sapiens, 22Rv1, 144 h, read-out: 22RV1 IC50 (nM), 22RV1 cells, 6 days culture, CCK-8, OD 450 nm.

On to `CC(C)(c1ccc(OCc2ccnc(N3CC4(COC4)C3)n2)cc1)c1ccc(O[C@H]2C[C@H](Nc3ccc4c(c3)C(=O)N(C3CCC(=O)NC3=O)C4=O)C2)cc1` (some centres unmarked) [Example 75], for which, in series [1], the DC50 – broadly, the concentration giving 50% degradation – was less than 10 nM. In series [2], the AUC(0-inf) lay within 5000 to 30000 ng·h/mL. Besides, the 50% inhibitory concentration (IC50) (in general, the concentration at which inhibition is half-maximal) with 22RV1 cells (setting [3]) turned out to be 8 nM.
Compound `CC(C)(c1ccc(OCc2ccnc(N3CC4(COC4)C3)n2)cc1)c1ccc(O[C@H]2C[C@@H](Nc3ccc4c(c3)C(=O)N(C3CCC(=O)NC3=O)C4=O)C2)cc1` (some centres unmarked) [Example 76, 5-(((1s,3s)-3-(4-(2-(4-((2-(2-oxa-6-azaspiro[3.3]heptane-6-yl)pyrimidin-4-yl)methoxy)phenyl)propan-2-yl)phenoxy)cyclobutyl)amino)-2-(2,6-dioxopiperidin-3-yl)isoindolin-1,3-dione] showed a DC50 in series [1] of less than 10 nM. Further, in series [2], the AUC(0-inf) lay in the range of 1000 to 5000 ng·h/mL. For the same compound, the 50% inhibitory concentration (IC50) in the series with 22RV1 cells (setting [3]) came to 11 nM.
As for `CC(C)(c1ccc(Oc2ccc(-n3nccn3)nc2)cc1)c1ccc(O[C@H]2C[C@H](Nc3ccc4c(c3)CN(C3CCC(=O)NC3=O)C4=O)C2)cc1` (some centres unmarked) [Example 94], the 50% degradation concentration (DC50) in series [1] was less than 10 nM. In series [2], the AUC(0-inf) lay within 1000 to 5000 ng·h/mL. Further, the half-maximal inhibitory concentration (IC50) in the series with 22RV1 cells (setting [3]) turned out to be 4 nM.
The like results for `CC(C)(c1ccc(Oc2cnc(C#N)nc2)cc1)c1ccc(O[C@H]2C[C@H](Nc3ccc4c(c3)C(=O)N(C3CCC(=O)NC3=O)C4=O)C2)cc1` (some centres unmarked) [Example 97, 5-(4-(2-(4-((1r,3r)-3-((2-(2,6-dioxopiperidin-3-yl)-1,3-dioxoisoindolin-5-yl)amino)cyclobutyloxy)phenyl)propan-2-yl)phenoxy)pyrimidin-2-carbonitrile] were, in that order, less than 10 nM, 5000 to 30000 ng·h/mL and 15 nM.
`CC(C)(c1ccc(Oc2ccc(C#N)nn2)cc1)c1ccc(O[C@H]2C[C@H](Nc3ccc4c(c3)C(=O)N(C3CCC(=O)NC3=O)C4=O)C2)cc1` (some centres unmarked) [Example 98, 6-(4-(2-(4-((1r,3r)-3-((2-(2,6-dioxopiperidin-3-yl)-1,3-dioxoisoindolin-5-yl)amino)cyclobutyloxy)phenyl)propan-2-yl)phenoxy) pyridazine-3-carbonitrile] came in with a 50% degradation concentration (DC50) in series [1] of less than 10 nM. Moreover, the AUC(0-inf) in series [2] lay within 100 to 1000 ng·h/mL. The concentration for half-maximal inhibition (IC50) in the series with 22RV1 cells (setting [3]) was 4 nM.
As to `Cc1nc(-c2ncc(Oc3ccc(C(C)c4ccc(O[C@H]5C[C@H](Nc6ccc7c(c6)C(=O)N(C6CCC(=O)NC6=O)C7=O)C5)cc4)cc3)cn2)no1` (some centres unmarked) [Example 99], the half-maximal degradation concentration (DC50) in series [1] was less than 10 nM. Besides, in series [2], the AUC(0-inf) lay within 5000 to 30000 ng·h/mL. Besides, the IC50 in the series on 22RV1 cells (read-out: 22RV1 IC50, 22RV1 cells, 6 days culture, CCK-8, OD 450 nm) amounted to 17 nM.
In turn, `CC(=O)c1nccc(COc2ccc(C(C)(C)c3ccc(O[C@H]4C[C@H](Nc5ccc6c(c5)C(=O)N(C5CCC(=O)NC5=O)C6=O)C4)cc3)cc2)n1` (stereo partly drawn) [Example 110, 5-(((trans)-3-(4-(2-(4-((2-acetylpyrimidin-4-yl)methoxy)phenyl)propan-2-yl)phenoxy)cyclobutyl)amino)-2-(2,6-dioxopiperidin-3-yl)isoindolin-1,3-dione] returned a 50% degradation concentration (DC50) in series [1] of less than 10 nM. In series [2], the AUC(0-inf) was 5000 to 30000 ng·h/mL. In addition, in the series with 22RV1 cells (setting [3]), the IC50 was determined as 3 nM.
`CC(O)c1ncc(Oc2ccc(C(C)(C)c3ccc(O[C@H]4C[C@H](Nc5ccc6c(c5)C(=O)N(C5CCC(=O)NC5=O)C6=O)C4)cc3)cc2)cn1` (some centres unmarked) [Example 118]: the “After oral administration of 3 mg/kg, mouse plasma exposure AUCinf (μg*h/mL)” value in series [2] is listed as “A (30-5 μg*h/mL)”. Also, the 50% inhibitory concentration (IC50) with 22RV1 cells (setting [3]) stood at 3 nM.
In turn, `CC(=O)c1ncc(Oc2ccc(C(C)(C)c3ccc(O[C@H]4C[C@H](Nc5ccc6c(c5)C(=O)N(C5CCC(=O)NC5=O)C6=O)C4)cc3)cc2)cn1` (stereo partly drawn) [Example 119, 5-(((trans)-3-(4-(2-(4-((2-acetylpyrimidin-5-yl)oxy)phenyl)propan-2-yl)phenoxy)cyclobutyl)amino)-2-(2,6-dioxopiperidin-3-yl) isoindolin-1,3-dione] showed a DC50 in series [1] of less than 10 nM. Also, in series [2], the AUC(0-inf) lay in the range of 5000 to 30000 ng·h/mL. Also, in the series with 22RV1 cells (setting [3]), the IC50 is 2 nM.
`CC(O)c1ccc(Oc2ccc(C(C)(C)c3ccc(O[C@H]4C[C@H](Nc5ccc6c(c5)C(=O)N(C5CCC(=O)NC5=O)C6=O)C4)cc3)cc2)nn1` (some centres unmarked) [Example 125] yielded a DC50 in series [1] of less than 10 nM. In series [2], the AUC(0-inf) lay within 5000 to 30000 ng·h/mL. In addition, the IC50 in the series with 22RV1 cells (setting [3]) worked out at 10 nM.
Turning to `CC(=O)c1ccc(Oc2ccc(C(C)(C)c3ccc(O[C@H]4C[C@H](Nc5ccc6c(c5)C(=O)N(C5CCC(=O)NC5=O)C6=O)C4)cc3)cc2)nn1` (stereo partly drawn) [Example 126, 5-(((trans)-3-(4-(2-(4-((6-acetylpyridazine-3-yl)oxy)phenyl)propan-2-yl)phenoxy)cyclobutyl)amino)-2-(2,6-dioxopiperidin-3-yl)isoindolin-1,3-dione], in series [1], the DC50 is less than 10 nM. For the same compound, the AUC(0-inf) in series [2] was in the range of 5000 to 30000 ng·h/mL. Besides, the IC50 in the series on 22RV1 cells (setting [3]) stood at 6 nM.
For the compound `CC(C)(c1ccc(OCc2ccnc(N3CC4(COC4)C3)n2)cc1)c1ccc(N2CC(Nc3ccc4c(c3)C(=O)N(C3CCC(=O)NC3=O)C4=O)C2)cc1` (centres unmarked) [Example 154], in series [1], the half-maximal degradation concentration (DC50) is less than 10 nM. The AUC(0-inf) in series [2] is 1000 to 5000 ng·h/mL. In addition, in the series with 22RV1 cells (setting [3]), the IC50 came to 7 nM.
`Cc1nc(-c2ccnc(Oc3ccc(C(C)(C)c4ccc(O[C@H]5C[C@H](Nc6ccc7c(c6)C(=O)N(C6CCC(=O)NC6=O)C7=O)C5)cc4)cc3)n2)no1` (some centres unmarked) [Example 166] gave a DC50 in series [1] of less than 10 nM. Also, the AUC(0-inf) in series [2] is 5000 to 30000 ng·h/mL. Besides, the half-inhibitory concentration (IC50) in the series on 22RV1 cells (setting [3]) stood at 6 nM.
The compound `CCC(CC)(c1ccc(Oc2ccc(C(C)O)nn2)cc1)c1ccc(O[C@H]2C[C@H](Nc3ccc4c(c3)C(=O)N(C3CCC(=O)NC3=O)C4=O)C2)cc1` (some centres unmarked) [Example 175, 2-(2,6-dioxopiperidin-3-yl)-5-(((1r,3r)-3-(4-(3-(4-((6-(1-hydroxylethyl)pyridazine-3-yl)oxy)phenyl)pentan-3-yl)phenoxy)cyclobutyl)amino)isoindolin-1,3-dione] registered a 50% degradation concentration (DC50) in series [1] of less than 10 nM. In series [2], the AUC(0-inf) lay in the range of 1000 to 5000 ng·h/mL. Also, the half-maximal inhibitory concentration (IC50) with 22RV1 cells (setting [3]) is 4 nM.
In series [1], `CNC(=O)c1nccc(COc2ccc(C(C)(C)c3ccc(OCCCNc4ccc5c(c4)C(=O)N(C4CCC(=O)NC4=O)C5=O)cc3)cc2)n1` (centres unmarked) [Example 183, 4-((4-(2-(4-(3-((2-(2,6-dioxopiperidin-3-yl)-1,3-dioxoisoindolin-5-yl)amino)propoxy)phenyl)propan-2-yl)phenoxy)methyl)-N-methylpyrimidin-2-carbonylamine] gave a 50% degradation concentration (DC50) of 11 to 100 nM. In addition, in series [2], the AUC(0-inf) was in the range of 100 to 1000 ng·h/mL. Moreover, in the series with 22RV1 cells (setting [3]), the IC50 worked out at 20 nM.
For `CNC(=O)c1nccc(COc2ccc(C(C)(C)c3ccc(O[C@H]4C[C@@H](Nc5ccc6c(c5)C(=O)N(C5CCC(=O)NC5=O)C6=O)C4)cc3)cc2)n1` (some centres unmarked) [Example 187, 4-((4-(2-(4-((1s,3s)-3-((2-(2,6-dioxopiperidin-3-yl)-1,3-dioxoisoindolin-5-yl)amino)cyclobutyloxy)phenyl)propan-2-yl)phenoxy)methyl)-N-methylpyrimidin-2-carbonylamine], in that order: less than 10 nM, 100 to 1000 ng·h/mL and 6 nM.
As for `COc1ncc2c(n1)CN(c1ccc(C(C)(C)c3ccc(OC4CC(Nc5ccc6c(c5)C(=O)N(C5CCC(=O)NC5=O)C6=O)C4)cc3)cc1)CC2` (centres unmarked) [Example 188], the half-maximal degradation concentration (DC50) in series [1] was less than 10 nM. In series [2], the AUC(0-inf) lay in the range of 1000 to 5000 ng·h/mL. Moreover, in the series on 22RV1 cells (setting [3]), the IC50 came out at 12 nM.
`CC(C)(c1ccc(O[C@H]2C[C@H](Nc3ccc4c(c3)C(=O)N(C3CCC(=O)NC3=O)C4=O)C2)cc1)c1ccc(N2CCc3cnc(N4CC5(COC5)C4)nc3C2)cc1` (some centres unmarked) [Example 189] gave a DC50 in series [1] of less than 10 nM. Also, the AUC(0-inf) in series [2] lay in the range of 5000 to 30000 ng·h/mL. For the same compound, in the series with 22RV1 cells (setting [3]), the concentration for half-maximal inhibition (IC50) stood at 9 nM.
In turn, `CC(C)(c1ccc(O[C@H]2C[C@@H](Nc3ccc4c(c3)C(=O)N(C3CCC(=O)NC3=O)C4=O)C2)cc1)c1ccc(N2CCc3cnc(N4CC5(COC5)C4)nc3C2)cc1` (some centres unmarked) [Example 190] showed a DC50 in series [1] of less than 10 nM. The AUC(0-inf) in series [2] lay in the range of 5000 to 30000 ng·h/mL. Moreover, the 50% inhibitory concentration (IC50) in the series on 22RV1 cells (setting [3]) came out at 12 nM.
